The record followed here is patent publication US12660819B2, “Herbicidal derivatives” (SYNGENTA CROP PROTECTION AG, priority 2020, dated 2026).

What all share (assay type): in vivo
Assay [1] relates to Echinochloa crus-galli (ECHCG). Put plainly: Pre-emergence Test (glasshouse, percentage damage to the plant). As to conditions: 1000 g/ha unless otherwise stated, five-point scale.
Assay [2] has as its system Solanum nigrum (SOLNI). The assay is described as above. The settings on record: 1000 g/ha unless otherwise stated, five-point scale.
Assay [3] relates to Ipomoea hederacea (IPOHE). Put plainly: Post-emergence Test (glasshouse, percentage damage to the plant). As to conditions: post-emergence spray, 1000 g/ha unless otherwise stated, evaluated after 13 days. An outline of the steps: (§1)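 Scored 13 days after spraying as percentage plant damage in five bands (5=81–100%, 4=61–80%, 3=41–60%, 2=21–40%, 1=0–20%). Spray at 1000 g/ha unless stated, in acetone/water 50:50 plus 0.5% Tween 20, onto sown glasshouse pots (24/16 °C, 14 h light, 65% humidity).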

For assay [4], the system named is Amaranthus retoflexus (AMARE). The description is as above. The settings on record: post-emergence spray, 1000 g/ha unless otherwise stated, evaluated after 13 days. An outline of the steps: (§2)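 Rate 1000 g/ha unless stated otherwise. Vehicle: acetone/water 50:50 with 0.5% Tween 20, diluted into aqueous spray. Timing: spray after sowing, read 13 days later. Score: 5=81-100%, 4=61-80%, 3=41-60%, 2=21-40%, 1=0-20% damage.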

Assay [5] relates to Echinochloa crus-galli (ECHCG). The description is as above. As to conditions: post-emergence spray, 1000 g/ha unless otherwise stated, evaluated after 13 days. The procedure, abridged:
as §2

In assay [6] the test system is Setaria faberi (SETFA). Described as above. The settings on record: post-emergence spray, 1000 g/ha unless otherwise stated, evaluated after 13 days. An outline of the steps:
as §1

For assay [7], the system named is Lolium perenne (LOLPE). The description is as above. The settings on record: post-emergence spray, 1000 g/ha unless otherwise stated, evaluated after 13 days. The procedure, abridged:
as §2

Assay [8] concerns Solanum nigrum (SOLNI). The description is as above. As to conditions: post-emergence spray, 1000 g/ha unless otherwise stated, evaluated after 13 days. The procedure, abridged: as §2
Assay [9] deals with Lolium perenne (LOLPE). Kind of assay: Pre-emergence Test (glasshouse, percentage damage to the plant). As to conditions: 1000 g/ha unless otherwise stated, five-point scale.
In assay [10] the test system is Amaranthus retoflexus (AMARE). The description is as above. As to conditions: 1000 g/ha unless otherwise stated, five-point scale.
In assay [11] the test system is Setaria faberi (SETFA). Described as above. As to conditions: 1000 g/ha unless otherwise stated, five-point scale.
The test system of assay [12] is Ipomoea hederacea (IPOHE). The assay is described as above. The settings on record: 1000 g/ha unless otherwise stated, five-point scale.

`CCn1c(C)c(-c2ccc(F)c(Cl)c2)c(=O)c(C(=O)O)c1-c1ccc(Cl)c(Cl)c1` [Compound 22, 5-(3-chloro-4-fluoro-phenyl)-2-(3,4-dichlorophenyl)-1-ethyl-6-methyl-4-oxo-pyridine-3-carboxylic acid]: the “percentage damage to the plant, ECHCG” value in [1] is given as 1 (1=0-20%). Further, the “percentage damage to the plant, SOLNI” value with Solanum nigrum (SOLNI) [2] was 2 (2=21-40%). In addition, the “Post-emergence Test IPOHE, percentage damage to the plant (five-point scale)” value in assay [3] is 3 (3=41-60%). The “Post-emergence Test AMARE, percentage damage to the plant (five-point scale)” value in assay [4] is reported as 5 (5=81-100%). Also, the “Post-emergence Test ECHCG, percentage damage to the plant (five-point scale)” value in assay [5] is recorded as 2 (2=21-40%). In the assay with Setaria faberi (SETFA) [6], the “Post-emergence Test SETFA, percentage damage to the plant (five-point scale)” value is listed as 4 (4=61-80%). In the assay on Lolium perenne (LOLPE) [7], the “Post-emergence Test LOLPE, percentage damage to the plant (five-point scale)” value is 2 (2=21-40%). In the assay on Solanum nigrum (SOLNI) [8], the “Post-emergence Test SOLNI, percentage damage to the plant (five-point scale)” value is recorded as 4 (4=61-80%). Further, the “percentage damage to the plant, LOLPE” value in the assay on Lolium perenne (LOLPE) [9] is 2 (2=21-40%). Moreover, the “percentage damage to the plant, AMARE” value in assay [10] is listed as 2 (2=21-40%). Moreover, the “percentage damage to the plant, SETFA” value in the assay with Setaria faberi (SETFA) [11] is 3 (3=41-60%). Also, in assay [12], the “percentage damage to the plant, IPOHE” value is 1 (1=0-20%).
As for `CCn1c(C)c(-c2cncc(Cl)c2)c(=O)c(C(=O)O)c1-c1ccc(Cl)c(Cl)c1` [Compound 23, 5-(5-chloro-3-pyridyl)-2-(3,4-dichlorophenyl)-1-ethyl-6-methyl-4-oxo-pyridine-3-carboxylic acid], the “percentage damage to the plant, ECHCG” value in assay [1] is recorded as 1 (1=0-20%). Also, the “percentage damage to the plant, SOLNI” value in the assay on Solanum nigrum (SOLNI) [2] is reported as 1 (1=0-20%). Further, the “Post-emergence Test IPOHE, percentage damage to the plant (five-point scale)” value in [3] is listed as 3 (3=41-60%). Further, in assay [4], the “Post-emergence Test AMARE, percentage damage to the plant (five-point scale)” value is on record as 3 (3=41-60%). For the same compound, the “Post-emergence Test ECHCG, percentage damage to the plant (five-point scale)” value in assay [5] is 3 (3=41-60%). Besides, the “Post-emergence Test SETFA, percentage damage to the plant (five-point scale)” value in the assay with Setaria faberi (SETFA) [6] was 4 (4=61-80%). The “Post-emergence Test LOLPE, percentage damage to the plant (five-point scale)” value in the assay on Lolium perenne (LOLPE) [7] is 1 (1=0-20%). Further, the “Post-emergence Test SOLNI, percentage damage to the plant (five-point scale)” value in the assay with Solanum nigrum (SOLNI) [8] was 1 (1=0-20%). Moreover, the “percentage damage to the plant, LOLPE” value in the assay on Lolium perenne (LOLPE) [9] was 1 (1=0-20%). In addition, in assay [10], the “percentage damage to the plant, AMARE” value was 1 (1=0-20%). Further, the “percentage damage to the plant, SETFA” value in the assay on Setaria faberi (SETFA) [11] is listed as 5 (5=81-100%). In [12], the “percentage damage to the plant, IPOHE” value is listed as 1 (1=0-20%).
With `CCn1c(C)c(-c2ccccc2)c(=O)c(C(=O)O)c1-c1ccc(Cl)c(Cl)c1` [Compound 24, 2-(3,4-dichlorophenyl)-1-ethyl-6-methyl-4-oxo-5-phenyl-pyridine-3-carboxylic acid], the “percentage damage to the plant, ECHCG” value in [1] was 2 (2=21-40%). Further, in the assay on Solanum nigrum (SOLNI) [2], the “percentage damage to the plant, SOLNI” value is 5 (5=81-100%). Further, in assay [3], the “Post-emergence Test IPOHE, percentage damage to the plant (five-point scale)” value was 4 (4=61-80%). For the same compound, the “Post-emergence Test AMARE, percentage damage to the plant (five-point scale)” value in [4] is reported as 4 (4=61-80%). The “Post-emergence Test ECHCG, percentage damage to the plant (five-point scale)” value in [5] is given as 3 (3=41-60%). In the assay with Setaria faberi (SETFA) [6], the “Post-emergence Test SETFA, percentage damage to the plant (five-point scale)” value was 4 (4=61-80%). Moreover, in the assay with Lolium perenne (LOLPE) [7], the “Post-emergence Test LOLPE, percentage damage to the plant (five-point scale)” value is reported as 4 (4=61-80%). In addition, the “Post-emergence Test SOLNI, percentage damage to the plant (five-point scale)” value with Solanum nigrum (SOLNI) [8] is 5 (5=81-100%). The “percentage damage to the plant, LOLPE” value in the assay with Lolium perenne (LOLPE) [9] was 2 (2=21-40%). Moreover, in assay [10], the “percentage damage to the plant, AMARE” value was 1 (1=0-20%). Also, the “percentage damage to the plant, SETFA” value with Setaria faberi (SETFA) [11] is 1 (1=0-20%). For the same compound, in assay [12], the “percentage damage to the plant, IPOHE” value was 4 (4=61-80%).
Take `CCn1c(C)c(-c2ccncc2)c(=O)c(C(=O)O)c1-c1ccc(Cl)c(Cl)c1` [Compound 25, 2-(3,4-dichlorophenyl)-1-ethyl-6-methyl-4-oxo-5-pyridin-1-ium-4-yl-pyridine-3-carboxylic acid;2,2,2-trifluoroacetate]: the “percentage damage to the plant, ECHCG” value in assay [1] is recorded as 1 (1=0-20%). Moreover, the “percentage damage to the plant, SOLNI” value with Solanum nigrum (SOLNI) [2] was 1 (1=0-20%). Further, the “Post-emergence Test IPOHE, percentage damage to the plant (five-point scale)” value in assay [3] is listed as 2 (2=21-40%). The “Post-emergence Test AMARE, percentage damage to the plant (five-point scale)” value in [4] was 3 (3=41-60%). Besides, the “Post-emergence Test ECHCG, percentage damage to the plant (five-point scale)” value in assay [5] is given as 4 (4=61-80%). Also, in the assay with Setaria faberi (SETFA) [6], the “Post-emergence Test SETFA, percentage damage to the plant (five-point scale)” value is recorded as 4 (4=61-80%). In addition, the “Post-emergence Test LOLPE, percentage damage to the plant (five-point scale)” value with Lolium perenne (LOLPE) [7] is given as 1 (1=0-20%). The “Post-emergence Test SOLNI, percentage damage to the plant (five-point scale)” value in the assay with Solanum nigrum (SOLNI) [8] was 2 (2=21-40%). For the same compound, the “percentage damage to the plant, LOLPE” value in the assay with Lolium perenne (LOLPE) [9] is reported as 1 (1=0-20%). Moreover, the “percentage damage to the plant, AMARE” value in [10] is given as 1 (1=0-20%). Besides, the “percentage damage to the plant, SETFA” value in the assay with Setaria faberi (SETFA) [11] is 3 (3=41-60%). Moreover, the “percentage damage to the plant, IPOHE” value in assay [12] was 1 (1=0-20%).
Turning to `CCn1c(C)c(-c2ccc(C(F)(F)F)cc2)c(=O)c(C(=O)O)c1-c1ccc(Cl)c(Cl)c1` [Compound 26, 2-(3,4-dichlorophenyl)-1-ethyl-6-methyl-4-oxo-5-[4-(trifluoromethyl)phenyl]pyridine-3-carboxylic acid], in assay [1], the “percentage damage to the plant, ECHCG” value is 1 (1=0-20%). The “percentage damage to the plant, SOLNI” value with Solanum nigrum (SOLNI) [2] is given as 1 (1=0-20%). The “Post-emergence Test IPOHE, percentage damage to the plant (five-point scale)” value in [3] is given as 4 (4=61-80%). For the same compound, the “Post-emergence Test AMARE, percentage damage to the plant (five-point scale)” value in assay [4] is listed as 5 (5=81-100%). The “Post-emergence Test ECHCG, percentage damage to the plant (five-point scale)” value in [5] is recorded as 4 (4=61-80%). Besides, the “Post-emergence Test SETFA, percentage damage to the plant (five-point scale)” value in the assay with Setaria faberi (SETFA) [6] is listed as 5 (5=81-100%). In addition, the “Post-emergence Test LOLPE, percentage damage to the plant (five-point scale)” value in the assay on Lolium perenne (LOLPE) [7] is 1 (1=0-20%). Further, the “Post-emergence Test SOLNI, percentage damage to the plant (five-point scale)” value in the assay with Solanum nigrum (SOLNI) [8] is recorded as 2 (2=21-40%). Besides, the “percentage damage to the plant, LOLPE” value in the assay with Lolium perenne (LOLPE) [9] is on record as 1 (1=0-20%). Besides, in assay [10], the “percentage damage to the plant, AMARE” value is reported as 1 (1=0-20%). Also, the “percentage damage to the plant, SETFA” value with Setaria faberi (SETFA) [11] is 1 (1=0-20%). Also, the “percentage damage to the plant, IPOHE” value in [12] was 1 (1=0-20%).
In the case of `CCn1c(C)c(-c2ncco2)c(=O)c(C(=O)O)c1-c1ccc(Cl)c(Cl)c1` [Compound 27, 2-(3,4-dichlorophenyl)-1-ethyl-6-methyl-5-oxazol-2-yl-4-oxo-pyridine-3-carboxylic acid], in [1], the “percentage damage to the plant, ECHCG” value is 1 (1=0-20%). Further, the “percentage damage to the plant, SOLNI” value with Solanum nigrum (SOLNI) [2] is 1 (1=0-20%). Also, the “Post-emergence Test IPOHE, percentage damage to the plant (five-point scale)” value in assay [3] is on record as 2 (2=21-40%). Also, the “Post-emergence Test AMARE, percentage damage to the plant (five-point scale)” value in assay [4] was 3 (3=41-60%). In addition, in assay [5], the “Post-emergence Test ECHCG, percentage damage to the plant (five-point scale)” value is 3 (3=41-60%). The “Post-emergence Test SETFA, percentage damage to the plant (five-point scale)” value in the assay with Setaria faberi (SETFA) [6] is recorded as 3 (3=41-60%). In addition, the “Post-emergence Test LOLPE, percentage damage to the plant (five-point scale)” value in the assay with Lolium perenne (LOLPE) [7] is listed as 1 (1=0-20%). In addition, in the assay with Solanum nigrum (SOLNI) [8], the “Post-emergence Test SOLNI, percentage damage to the plant (five-point scale)” value is listed as 3 (3=41-60%). Moreover, the “percentage damage to the plant, LOLPE” value with Lolium perenne (LOLPE) [9] was 1 (1=0-20%). Besides, the “percentage damage to the plant, AMARE” value in assay [10] is 1 (1=0-20%). Besides, the “percentage damage to the plant, SETFA” value in the assay on Setaria faberi (SETFA) [11] is reported as 1 (1=0-20%). Further, the “percentage damage to the plant, IPOHE” value in [12] was 1 (1=0-20%).
